Patent US20070275935A1, “Estratriene Derivatives” (priority 2003, published 2007)

Key:
[1] = tested on: GM-CSF production by Human Airway Smooth Muscle Cells; assay: Interleukin-1α-mediated GM-CSF production by HASM cells (ELISA); type: cell-based; conditions: inhibition of interleukin-1α (1 ng/ml)-mediated GM-CSF production; concentration not given; * not defined
[2] = tested on: Human airway smooth muscle (HASM) cells; assay: Thrombin-induced proliferation of human airway smooth muscle (HASM) cells, cell number after 48 h; type: cell-based; conditions: for IC50: Homo sapiens, negative log of the concentration that reduces the thrombin-induced proliferative response by 50%, pIC50 of 4.00 = inactive, read-out: HASM-Thr pIC50 (converted); for HASM- Thr pIC25 / HASM- Thr pIC75: two site model, thrombin-induced proliferation; for HASM- Thr pIC25: first phase (inhibition up to 50%); for HASM- Thr pIC75: second phase (inhibition up to 100%)
Method: Human airway smooth muscle (HASM) cells were cultured from macroscopically normal bronchi (0.5-2 cm diameter) obtained from lung resection or heart-lung transplant specimens provided by the Alfred Hospital (Melbourne) according to methods published in detail previously (Fernandes et al., 1999).
Approximately 0.1 g of smooth muscle was stripped from the wall of the bronchus for each cell culture. Dissected tissue was immersed in Dulbecco's modified Eagle's medium (DMEM) (Flow Laboratories, Scotland), supplemented with 100 U/mL penicillin G (CSL, Australia) and 100 ug/mL streptomycin (CSL, Australia). The tissue was rinsed in phosphate buffered saline (PBS; Oxoid, England) and the airway smooth muscle was chopped into 2 mm^3 pieces and digested for 2 hours in DMEM containing elastase (0.5 mg/mL: Worthington Biochemical, USA) followed by a 12 hour incubation in DMEM containing collagenase (1 mg/mL) (Worthington Biochemical, USA), at 37° C. with agitation.
The resulting cell suspension was centrifuged and washed three times in phosphate buffered saline (PBS). Following the last centrifugation step, the cells were resuspended in 25 mL of DMEM supplemented with L-glutamine (2 mM: Sigma, USA), penicillin G (100 U/mL), streptomycin (100 μg/mL), amphotericin B (2 μg/mL: Wellcome, UK) and heat-inactivated FCS (10% v/v: CSL, Australia) and seeded into 25 cm^2 culture flasks. The primary isolates were incubated for 7 to 14 days to reach confluence.
Cells were harvested weekly by 10 min exposure to trypsin (0.5%: CSL, Australia) and EDTA (1 mM in PBS: BDH, Australia) and passaged at a 1:3 ratio into 75 cm^2 flasks.
The activity of the compounds has been established in cell culture by exploring their effects on mitogen-induced increases in cell number. We investigated the effects of 2MEO and its analogues, 4NO and 4NOM, on the proliferation of HASM cells in response to the proliferative stimulus of either thrombin of basic fibroblast growth factor (bFGF). Cells were seeded onto 6-well plates at a density of 1.5×10^4 cells cm^2, made quiescent by removal of serum-containing media for 24 hours and then stimulated for 48 h with either thrombin (0.3 U/ml) or bFGF (300 pM). The test compounds were pre-incubated with HASM cells for 30 minutes before the addition of thrombin. At the end of the 48 hour incubation period, cells were detached from the culture plate by trypsin (0.5% w/v in PBS containing 1 mM EDTA), incubated for 5 minutes at ambient temperature in PBS containing 0.5% (w/v) trypan blue, washed twice (2% FCS in PBS), isolated by centrifugation (12,000×g, 5 min) and resuspended in 200 μl 2% FCS in PBS for counting in a haemocytometer chamber.
Data are expressed as a percentage of the cell number in vehicle treated wells and are presented as the mean and standard error of the mean.
The potency of the compounds in regulating thrombin-induced proliferation of human airway smooth muscle (HASM) was assessed in cells maintained in culture as described above. The potencies are presented as pIC50 values (Column A of Table 4) denoting the negative log of the concentration that reduces the proliferative response by 50%. […] When the single phase model was determined to be more appropriate, the values of pIC25 and pIC75 were not calculated or shown in the table.

[3] = tested on: type II airway epithelial cell line, A549; assay: Proliferation of A549 cells in response to 5% FCS; type: cell-based, human; conditions: Homo sapiens, A549; proliferation in response to 5% FCS; pIC50 of 4.00 = inactive; read-out: A549 PIC50 (converted)
Method: The effects of 4NO were evaluated in a number of non-smooth muscle cell types including the type II airway epithelial cell line, A549 (ATCC accession number ATCC CCL-185 Lung carcinoma human) (FIG. 2); the human breast tumour cell line, MCF7, (ATTC accession number ATCC HTB-22 breast adenocarcinoma, human) which expresses the estrogen receptor (FIG. 3); and in bovine aortic endothelial cells (BAEC) (FIG. 4).
The effects of test compounds were examined on proliferation of A549 cells in response to 5% fetal calf serum (FCS). Analogues were pre-incubated with A549 cells for 30 min before the addition of FCS. The incubation continued for 48 h before cell enumeration. Data are expressed as a percentage of the cell number in vehicle treated wells and are presented as the mean and standard error of the mean. Similarly the effects of 2MEO and 4NO on proliferation of MCF7 in response to 5% FCS or epidermal growth factor (EGF, 300 pM) were examined, as were the effects of 2MEO and 4NO on proliferation of BAEC in response to 5% FCS. The incubation parameters were the same as described above and results are presented as the mean and standard error of the mean.
This assay was also used to evaluate the ability of other compounds to inhibit the proliferation of non-smooth muscle cells MCF7 and A549 (described above) in response to 5% FCS. The results of this assay are presented in Table 4 (columns G and H respectively). The potency of the compounds was considerably less in inhibiting proliferation of these cell lines than it was for HASM. These observations support the contention that there are cell type-specific targets for the actions of these compounds. Such assays may also be adopted to examine the effect of other disclosed compounds on these cells or on other non-smooth muscle cells of interest.

[4] = target: T1, Estrogen Receptor (ER) (Rattus norvegicus, UniProt P06211); assay: Estrogen receptor binding assay, 3H-estradiol displacement from rat uterine cytosol; conditions: 3H-estradiol displacement, cytosolic preparations of rat uterus; pIC50 of 4.00 = inactive; read-out: ER-RLB pIC50 (converted)
T1 construct: using rat uterine cytosol as a source of ER; from tissue; host or cells: rat uterus, cytosol fraction (30000 x g supernatant)
T1 sequence (P06211 1-600): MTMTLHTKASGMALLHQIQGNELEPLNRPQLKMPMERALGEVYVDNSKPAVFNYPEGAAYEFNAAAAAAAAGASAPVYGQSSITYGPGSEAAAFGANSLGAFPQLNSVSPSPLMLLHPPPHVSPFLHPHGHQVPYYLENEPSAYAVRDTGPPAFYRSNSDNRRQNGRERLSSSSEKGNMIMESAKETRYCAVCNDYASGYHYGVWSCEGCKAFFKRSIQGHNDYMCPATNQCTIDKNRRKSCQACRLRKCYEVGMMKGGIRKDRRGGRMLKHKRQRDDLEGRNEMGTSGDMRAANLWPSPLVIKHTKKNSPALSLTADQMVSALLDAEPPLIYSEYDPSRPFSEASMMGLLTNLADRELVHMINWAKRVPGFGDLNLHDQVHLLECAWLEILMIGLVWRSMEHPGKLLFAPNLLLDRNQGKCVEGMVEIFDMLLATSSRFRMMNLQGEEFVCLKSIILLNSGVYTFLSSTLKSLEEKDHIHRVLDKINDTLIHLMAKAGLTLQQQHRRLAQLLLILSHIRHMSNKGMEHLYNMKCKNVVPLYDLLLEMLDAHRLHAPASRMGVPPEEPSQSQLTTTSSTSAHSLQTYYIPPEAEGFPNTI
Method: Uteri (6-10 per batch) were isolated from Brown Norway rats (250-350g), washed free from blood in saline and homogenised in 10 mM Tris buffer (pH 7.4, 1.5 mM EDTA, 10% w/v glycerol, 1 mM phenylmethylsulfonylfluoride) using an Ultra Turrax homogeniser for 3 by 15 s bursts with intervals of 1 min on ice.
Nuclear material and cellular debris were removed by centrifugation at 750×g at 4° C. for 10 min (Sorvall RT7); the cytosol component was prepared by centrifugation at 30000×g for 120 min at 4° C. in a Beckman JM1 centrifuge. The cytosol was diluted to approximately 1 mg/ml protein (rat uterine extract) determined using the Bradford method (Biorad).
Separation of bound from free radioligand was achieved by the addition of 500 μL of dextran-coated charcoal (400 mg dextran clinical grade C and 2g of charcoal, Norit A in 100 mL of Tris buffer) and centrifugation at 4° C. in a Sorval RT7 at 2000×g for 10 min.

[5] = tested on: Pulmonary fibroblasts; assay: bFGF-induced proliferation of human pulmonary fibroblasts; type: cell-based; conditions: inhibition of bFGF (300 pM)-induced proliferation, mean and SEM, minimum 3 experiments; 1 μM; * not defined
Method: Samples of parenchyma from human lung transplant recipients were dissected away from the pleura, chopped into fragments of less than 1 mm^2 and allowed to adhere to plastic culture dishes in a minimal volume of DMEM containing serum (10%) and antibiotics (as used for HASM culture). After the tissue fragments had adhered to the base of the dish additional medium was added. Medium was changed twice weekly until an explant culture formed, at which time the tissue fragments were removed and the cells were passaged in a 1:3 split ratio by exposure to trypsin weekly to produce pulmonary fibroblast cultures.
Pulmonary fibroblasts were cultured in DMEM, serum-deprived for 24 h, in the presence or absence of the test compounds, and then stimulated with 300 pM bFGF for 48 h before harvest and counting of viable cells. An increase pulmonary fibroblast cell number was prevented by 4NOM over the concentration range of 1 to 1000 nM.
A range of the disclosed compounds was subsequently examined using the above assay system, and the results are summarized in Column E of Table 4. […] The proliferation of parenchymal fibroblasts is important in the development of pulmonary fibrosis.

## COc1cc2c(cc1O)CC[C@@H]1[C@@H]2CC[C@]2(C)/C(=N/OCc3ccc([N+](=O)[O-])cc3)CC[C@@H]12 [CP-DM-3-103, 2-methoxyestrone-17-(4-nitrobenzyl)oxime]
[1]
  HASM - GM-CSF: either did not inhibit or produced less inhibition
[2]
  IC50: 3.16 µM
[3]
  IC50: 40.7 µM

## COc1cc2c(cc1O)/C(=N/OCc1cccc([N+](=O)[O-])c1)C[C@@H]1[C@@H]2CC[C@]2(C)/C(=N/O)CC[C@@H]12 [CP-DM-3-105, 2-methoxy-6-(3-nitrobenzyloxy)iminoestrone-17-oxime]
[4]
  IC50: 25.1 µM
[2]
  IC50: 0.1 µM
  HASM- Thr pIC25: 8.85
  HASM- Thr pIC75: 5.59
[3]
  IC50: 5.13 µM

## COc1cc2c(cc1O)/C(=N/OCc1cccc([N+](=O)[O-])c1)C[C@@H]1[C@@H]2CC[C@]2(C)[C@@H](O)CC[C@@H]12 [CP-DM-3-106, 2-methoxy-6-(3-nitrobenzyloxy)iminoestradiol]
[4]
  IC50: 0.178 µM
[2]
  IC50: 0.0251 µM
  HASM- Thr pIC25: 9.35
  HASM- Thr pIC75: 6.36
[3]
  IC50: 7.59 µM

## COc1ccc(CO/N=C2\C[C@@H]3[C@H](CC[C@]4(C)[C@@H](O)CC[C@@H]34)c3cc(OC)c(O)cc32)cc1 [CP-DM-4-5, 2-methoxy-6-(4-methoxybenzyloxy)-iminoestradiol]
[4]
  IC50: 0.794 µM
[2]
  IC50: 0.135 µM
  HASM- Thr pIC25: 10.46
  HASM- Thr pIC75: 5.27
[3]
  IC50: 5.01 µM

## COc1cc2c(cc1O)/C(=N/OCc1cc(F)cc(F)c1)C[C@@H]1[C@@H]2CC[C@]2(C)/C(=N/O)CC[C@@H]12 [CP-DM-4-36, 6-(3,5-difluorobenzyloxy)imino-2-methoxyestrone-17-oxime]
[4]
  IC50: 20 µM
[2]
  IC50: 0.129 µM
  HASM- Thr pIC25: 7.91
  HASM- Thr pIC75: 5.69
[3]
  IC50: 10 µM

## COc1cc2c(cc1O)/C(=N/OCc1ccc(C#N)cc1)C[C@@H]1[C@@H]2CC[C@]2(C)/C(=N/O)CC[C@@H]12 [CP-DM-4-38, 6-(4-cyanobenzyloxy)imino-2-methoxyestrone-17-oxime]
[5]
  pFib - bFGF: 26 ± 26
[2]
  HASM- Thr pIC25: 4.00
  HASM- Thr pIC75: 4.00

## COc1cc2c(cc1O)/C(=N/OCc1ccc(OC(F)(F)F)cc1)C[C@@H]1[C@@H]2CC[C@]2(C)/C(=N/O)CC[C@@H]12 [CP-DM-4-68, 2-methoxy-6-(4-trifluoromethoxybenzyloxy)iminoestrone-17-oxime]
[1]
  HASM - GM-CSF: 8 ± 13
[2]
  IC50: 1.82 µM
  HASM- Thr pIC25: 7.91
  HASM- Thr pIC75: 5.00

## COc1cc2c(cc1O)/C(=N/OCc1ccc(SC(F)(F)F)cc1)C[C@@H]1[C@@H]2CC[C@]2(C)/C(=N/O)CC[C@@H]12 [CP-DM-4-69, 2-methoxy-6-(4-trifluoromethylthiobenzyloxy)iminoestrone-17-oxime]
[5]
  pFib - bFGF: 87 ± 13*
[2]
  HASM- Thr pIC25: 4.00
  HASM- Thr pIC75: 4.00

## COc1cc2c(cc1O)/C(=N/OCc1ccc(C(C)C)cc1)C[C@@H]1[C@@H]2CC[C@]2(C)/C(=N/O)CC[C@@H]12 [CP-DM-4-77, 2-methoxy-6-(4-isopropylbenzyloxy)iminoestrone-17-oxime]
[1]
  HASM - GM-CSF: 26 ± 13
[2]
  IC50: 3.02 µM
[3]
  IC50: 3.16 µM

## COc1cc2c(cc1O)/C(=N/OCc1ccc(C)cc1)C[C@@H]1[C@@H]2CC[C@]2(C)[C@@H](O)CC[C@@H]12 [CP-DM-4-78, 2-methoxy-6-(4-methylbenzyloxy)iminoestradiol]
[1]
  HASM - GM-CSF: 35 ± 9*
[4]
  IC50: 0.229 µM
[2]
  IC50: 1 µM
[3]
  IC50: 10 µM

## COc1cc2c(cc1O)/C(=N/OCc1ccc([N+](=O)[O-])cc1)C[C@@H]1[C@@H]2CC[C@]2(C)[C@@H](OC(C)=O)CC[C@@H]12 [CP-DM-4-91, 2-Methoxy-6-(4-nitrobenzyloxy)iminoestradiol-17-acetate]
[2]
  IC50: 6.31 µM
[3]
  IC50: 10 µM
